Measurements taken from patent US20090318342A1, “Compounds” (IMPERIAL INNOVATIONS LIMITED, priority 2005, published 2009).

Columns and labels:
[1] = biological target: soluble form of TACE (TACE R651) (Homo sapiens, UniProt P78536); assay: Enzyme inhibition kinetic study, TACE; format: biochemical; conditions: 0.5 nM TACE, pH 9.0, 1 mM NaCl; for Inhibition of TACE activity (in words): FIG. 2B
Protocol: FIG. 2. Inhibition of MMP and TACE by N-TIMP-3 and its mutants. A. Inhibition of MMP-14(CD) by wild-type and mutated N-TIMP-3. Open circles, wild-type N-TIMP-3; closed circles, T2G; and open squares, -1A. B. Comparison of the inhibition of TACE by wild-type N-TIMP-3, N-TIMP-1 and TAPI-2. The inhibitors were incubated with 0.5 nM TACE for 3 hr at room temperature, and the residual enzyme activity was measured with 10 μM Substrate III (R&D Systems). […] Open circles, N-TIMP-3; closed circles, TAPI-2; and open squares, N-TIMP-1. C. Inhibition of TACE (0.5 nM) by wild-type and mutated N-TIMP-3. Open circles, wild-type inhibitor; closed circles, T2G; and open squares, -1A.
Enzyme inhibition kinetic studies—Inhibition kinetic studies for MMPs and TACE were carried out as described previously (19, 27) with modifications. Purified N-TIMP-3 and mutants were dialyzed against 20 mM Tris-HCl (pH 7.0), 50 mM NaCl containing 20% glycerol, centrifuged at 14,000 rpm for 10 min to remove any precipitate, and protein concentration was re-measured before conducting inhibition assays. Since NaCl inhibits the activity of the TACE ectodomain in vitro (28), we adjusted the final concentration of NaCl to 1 mM in all assays with TACE. Equal volumes (10% of total assay volume) of diluted solutions of N-TIMP-3 and mutants were added to TACE assays, resulting in a final pH of 8.8.
where v is the experimentally determined reaction velocity, v0 is the uninhibited activity, E is enzyme concentration, I is inhibitor concentration, K is the apparent inhibition constant (Ki^(app)) and h is the Hill coefficient.
The inhibitory activities of the mutants were also compared with that of wild-type N-TIMP-3 against a soluble form of TACE in which the transmembrane and C-terminal cytoplasmic domains are deleted (TACE R651; (28)). […] The inhibition curve of TACE by wild-type N-TIMP-3 is sigmoid, in striking contrast with the inhibition by TAPI-2 and with the inhibition of MMPs by N-TIMP-3 and N-TIMP-1 (FIGS. 2A, 2B; (31)). Sigmoid inhibition curves were also obtained for TACE with the T2G and -1A mutants of N-TIMP-3 (FIG. 2C).

THP-1 cells = assay: Inhibition of TNF-α shedding from THP-1 cells (ELISA); format: cell-based, human; conditions: 100 ng/ml PMA, 6 h, 50 to 500 nM
Protocol: FIG. 3. Effects of mutations in N-TIMP-3 on inhibition of cellular shedding of TNF-α. THP-1 cells (2.5×10^6/ml) growing in serum-free RPMI-1640 medium were stimulated with 100 ng/ml PMA for 20 min before adding various concentrations of N-TIMP-3 (wild-type and mutants). Cells were allowed to grow for another 6 hr and conditioned media were collected for the ELISA assays.
Inhibition of TNF-α shedding from THP-1 cells—All TIMP solutions were dialyzed against 20 mM Tris-HCl (pH 7.0), 150 mM NaCl and 20% glycerol before use. Human monocyte THP-1 cells cultured in RPMI-1640 medium supplemented with 5% fetal calf serum were harvested, extensively washed and reseeded into serum-free medium at 2.5×10^6 cells/ml. […] The amount of soluble TNF-α released into the medium was measured using sandwich enzyme-linked immunosorbent assay, as described by Engelberts et al. (30) with modifications. The released TNF-α was absorbed to microtiter plates coated with mouse monoclonal anti-human TNF-α antibody BD551220 (1:200 dilution), and the bound TNF-α was detected using biotinylated mouse monoclonal anti-human TNF-α: antibody BD554511 (1:500 dilution) and streptavidin conjugated with horse radish peroxidase, and 3,3′,5,5′-tetramethylbenzidine as peroxidase substrate (KPL, Guildford, UK). The plates were read at 450 nm with an ELX808 plate reader (BIO-TEK Instruments Inc). […]

[2] = test system: bovine nasal cartilage explants; assay: IL-1α-stimulated bovine nasal cartilage explants, GAG release; format: cell-based; conditions: 3 days
Protocol: (§1) GAG released into the conditioned media is measured in duplicate using a modification of the dimethylmethylene blue (DMMB) assay as described in Farndale et al.. Shark chondroitin sulfate (0-2.62 μg) is used as standard. The % of total GAG released into the medium is calculated as follows: % of total GAG released=(total GAG in the medium)/(total GAG in the medium+total GAG remaining in the cartilage).
Bovine nasal cartilage explants were stimulated with IL-1α in the presence or absence of N-TIMP-1, TIMP-2, or N-TIMP-3 for 3 days.

[3] = test system: porcine articular cartilage; assay: Retinoic acid-stimulated porcine articular cartilage, GAG release; format: cell-based
Protocol: Porcine articular cartilage from the metacarpophalangeal joints of 3-9 month old pigs is dissected into small shavings approximately 3 mm long and 2-3 mm wide. After dissection, the cartilage is allowed to rest for 24 h at 37° C. under 5% CO2 in DMEM containing penicillin-streptomycin, amphotericin B, and 5% fetal calf serum. The medium is then replaced with fresh media and the cartilage is rested for a further 24-48 h. Each cartilage piece is then placed in one well of a round bottom 96-well plate with 200 μl of serum-free DMEM with or without 10-100 ng/ml IL-1α or 1 μM retinoic acid and various concentrations of each TIMP-3 mutant. After 3 days, all of the conditioned media are harvested and stored at −20° C. until use.
as §1

[4] = test system: aggrecanase activity in IL-1α- and retinoic acid-stimulated cartilage; assay: Aggrecanase-generated aggrecan fragments in cartilage conditioned media, Western analysis; format: cell-based; conditions: 1 μM
From the text: Aggrecan fragments released into the conditioned medium are deglycosylated by digestion with chondroitinase ABC and keratanase and the samples are subjected to SDS/PAGE and Western blotting analysis as described by Little et al.. The primary antibodies used to detect aggrecanase-generated and MMP-generated aggrecan fragments are BC-3 and BC-14, respectively. Antigen-antibody complexes are detected by anti-mouse AP-linked donkey antibody and the AP substrate.
Conditioned media from the above experiments were analyzed by monoclonal antibodies that recognize either the aggrecanase-generated aggrecan neoepitope ARGSV or the MMP-generated aggrecan neoepitope FFGVG. In concordance with GAG release, there was an increase in the amount of aggrecanase-generated aggrecan fragments released upon treatment with either stimulus, but no MMP-generated fragments were detected.

[5] = test system: porcine articular cartilage; assay: IL-1α-stimulated porcine articular cartilage degradation, GAG release (DMMB); format: cell-based; conditions: IL-1α 10 ng/ml, 3 days
Protocol: FIG. 7. Inhibition of IL-1a stimulated porcine articular cartilage degradation by N-terminal mutants of N-TIMP-3. Porcine articular cartilage pieces were cultured for three days. Cartilage was stimulated with IL-1α (10 ng/ml) with TIMPs at the concentrations indicated. Glycosaminoglycan (GAG) release in the media was measured by dimethyl methylene blue (DMMB).
Porcine articular cartilage from the metacarpophalangeal joints of 3-9 month old pigs is dissected into small shavings approximately 3 mm long and 2-3 mm wide. After dissection, the cartilage is allowed to rest for 24 h at 37° C. under 5% CO2 in DMEM containing penicillin-streptomycin, amphotericin B, and 5% fetal calf serum. The medium is then replaced with fresh media and the cartilage is rested for a further 24-48 h. […]
GAG released into the conditioned media is measured in duplicate using a modification of the dimethylmethylene blue (DMMB) assay as described in Farndale et al.. […] The % of total GAG released into the medium is calculated as follows: % of total GAG released=(total GAG in the medium)/(total GAG in the medium+total GAG remaining in the cartilage).
Porcine articular cartilage pieces were cultured for 3 days. […] Glycosaminoglycan (GAG) release in the media was measured by dimethyl methylene blue (DMMB).

soluble form of TACE (TACE R651), sequence (P78536 215-651): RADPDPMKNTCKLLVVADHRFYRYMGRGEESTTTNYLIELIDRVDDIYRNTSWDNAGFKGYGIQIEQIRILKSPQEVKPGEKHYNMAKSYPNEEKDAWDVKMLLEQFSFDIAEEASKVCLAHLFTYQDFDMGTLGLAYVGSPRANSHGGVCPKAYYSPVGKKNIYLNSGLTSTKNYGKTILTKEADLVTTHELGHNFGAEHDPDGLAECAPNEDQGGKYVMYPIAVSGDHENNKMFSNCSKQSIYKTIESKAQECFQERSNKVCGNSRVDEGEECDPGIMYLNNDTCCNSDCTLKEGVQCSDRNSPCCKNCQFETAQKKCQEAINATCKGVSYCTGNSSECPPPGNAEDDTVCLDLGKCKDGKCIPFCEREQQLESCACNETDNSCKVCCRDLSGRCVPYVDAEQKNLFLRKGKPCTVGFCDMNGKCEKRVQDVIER

CC(C)CC(CC(=O)NO)C(=O)NC(C(=O)NC(C)C(=O)NCCN)C(C)(C)C (stereo not drawn) [TAPI-2, HONHCOCH2CH(CH2CH(CH3)2)—CO-t-Butyl-Gly-Ala-NHCH2CH2NH2, reference compound]
Inhibition of TACE activity (in words) [1]: effectively inhibited | h (Hill coefficient) for TACE inhibition ([1]; Table II, fit with equation 3): 1 | Ki ([1]; Table II, fit with equation 3, read-out: Ki(app) TACE): 4.28 ± 0.001 nM

N-TIMP-1: N-terminal inhibitory domain of TIMP-1, expressed in E. coli and folded in vitro [reference compound]
Inhibition of TACE activity (in words) [1]: minimal inhibitory activity | Inhibition of PMA-stimulated release of TNF-α (THP-1 cells): no effect | Inhibition of IL-1α-stimulated GAG release [2]: not effective even at the concentration of 1 μM | Inhibition of retinoic acid-stimulated GAG release [3]: did not inhibit | Release of aggrecanase-generated aggrecan fragments [4]: not effective

TIMP-1: tissue inhibitor of metalloproteinases-1 [reference compound]
Inhibition of IL-1α stimulated cartilage degradation (GAG release) [5]: did not
